Experiment [1] has as its system MDA-MB-231 cells. In words: cells. Particulars: Homo sapiens, MDA-MB-231, 72 h, read-out: 3-day IC50. Type of experiment: cell-based.
The subject of experiment [2] is MDA-MB-231 cells. Type of experiment: cell-based, human.

Structures can show the parent of a compound that is named as a salt.

By IC50 is commonly meant the concentration at which inhibition is half-maximal.

As for `COc1cccc2c1C(=O)c1c(O)c3c(c(O)c1C2=O)C[C@@](O)(C(=O)CO)C[C@@H]3O[C@H]1C[C@H](N)[C@H](O)[C@H](C)O1` [doxorubicin, doxorubicin hydrochloride], the IC50 with MDA-MB-231 cells [1] was about 510 nM. Further, in the experiment on MDA-MB-231 cells [2], the “cell death pathway triggered” value is “necrotic cell death pathway”.
As for `COC1=C2C[C@@H](C)C[C@H](OC)[C@H](O)[C@@H](C)/C=C(\C)[C@H](OC(N)=O)[C@@H](OC)/C=C\C=C(/C)C(=O)NC(=CC1=O)C2=O` [geldanamycin, Geldanamycin], the IC50 in the experiment with MDA-MB-231 cells [1] is 3700 nM. Besides, the “cell death pathway triggered” value in the experiment on MDA-MB-231 cells [2] is “apoptosis”.

These data come from PMC13005684 (Advanced Healthcare Materials, 2025).
